Patent US20250281462A1, “THERAPEUTICALLY EFFECTIVE ORAL ADMINISTRATION OF A 2 ARYLBENZIMIDAZOLE” (Tranquis Therapeutics, Inc., priority 2021, published 2025)
“And” between values parts separate entries of the source, which are not always exact repeats. Equal values may be shown once. Read-outs that look alike come from different tables or passages of the source.

Tests used:
[1] = Tissue concentrations (plasma, brain, liver) after single oral dose 25 mg/kg in mice; type: in vivo
Protocol: In a first experiment, a total of 3-4 male C57BL6/J mice were administered a single dose of TQS-168 by oral gavage at 25 mg/kg. TQS-168 was prepared for oral gavage as a suspension with 0.5% methylcellulose in PBS.
Tissues were collected at various time points after dosing and processed for LC-MS analyses of TQS-168 concentrations. The tissues analyzed include plasma, brain, and liver. Animals were perfused thoroughly with 20 mL ice cold PBS before brain and liver collection to remove contaminating blood. Data are shown in Table 1 (TQS-168 concentrations in ng/mL).

[2] = Plasma and brain concentrations after single oral dose in rats; type: in vivo; conditions: both sexes, Sprague-Dawley, rat, rats plasma, suspension; for AUC(0-t): plasma, po
Protocol: Both male (n=3) and female (n=3) Sprague-Dawley rats were administered a single dose of TQS-168 by oral gavage at 50, 150, or 500 mg/kg of TQS-168. TQS-168 was prepared as a suspension with 0.5% methylcellulose in PBS.
Plasma samples were collected at 30, 60, 120, 240, and 1440 minutes after administration. Brain samples were collected in some animals at 60, 240, and 1440 minutes after the single oral dose of TQS-168 at 500 mg/kg. Samples were processed for LC-MS analysis of TQS-168 concentrations.
Cmax and AUC0-t values from the plasma tissues were calculated using PKSolver (Compute Methods Programs Biomed. 2010 September; 99(3):306-14. doi: 10.1016j.cmpb.2010.01.007. Epub 2010 Feb. 21) with the underlying data plotted FIG. 12a.

[3] = 25 mg/kg p.o., 0.0 minutes, individual animal, 25 mg/kg
[4] = 25 mg/kg p.o., 15.0 minutes, individual animal, 25 mg/kg
[5] = 25 mg/kg p.o., 60.0 minutes, individual animal, 25 mg/kg
[6] = 25 mg/kg p.o., 120.0 minutes, individual animal, 25 mg/kg
[7] = 25 mg/kg p.o., 240.0 minutes, individual animal, 25 mg/kg
[8] = 25 mg/kg p.o., 480.0 minutes, individual animal, 25 mg/kg
[9] = 25 mg/kg p.o., 1440.0 minutes, individual animal, 25 mg/kg
[10] = 25 mg/kg p.o., 2880.0 minutes, individual animal, 25 mg/kg

## CC(C)(C)c1ccc(-c2nc3ccccc3[nH]2)cc1 [TQS-168, 2-(4-tert-butylphenyl)-1H-benzimidazole]
[1]; [3]
  concentration in brain: 4.2 ng/mL and 10.7 ng/mL and 22.8 ng/mL
  concentration in liver: 2.4 ng/mL and 0.4 ng/mL and 0.7 ng/mL
  concentration in plasma: 0.5 ng/mL and 0.1 ng/mL and 0.0 ng/mL
[1]; [4]
  concentration in brain: 21.6 ng/mL and 42.0 ng/mL and 35.2 ng/mL
  concentration in liver: 268.0 ng/mL and 496.0 ng/mL and 575.0 ng/mL and 431.5 ng/mL
  concentration in plasma: 12.6 ng/mL and 18.6 ng/mL and 14.6 ng/mL
[1]; [5]
  concentration in brain: 253.0 ng/mL and 755.0 ng/mL and 530.0 ng/mL and 630.0 ng/mL
  concentration in liver: 1060.0 ng/mL and 2725.0 ng/mL and 1940.0 ng/mL and 2175.0 ng/mL
  concentration in plasma: 107.0 ng/mL and 47.0 ng/mL and 57.4 ng/mL and 86.0 ng/mL
[1]; [6]
  concentration in brain: 282.0 ng/mL and 150.5 ng/mL and 242.5 ng/mL
  concentration in liver: 305.5 ng/mL and 2080.0 ng/mL and 1070.0 ng/mL and 1725.0 ng/mL
  concentration in plasma: 110.0 ng/mL and 43.8 ng/mL and 88.6 ng/mL and 131.0 ng/mL
[1]; [7]
  concentration in brain: 399.0 ng/mL and 143.0 ng/mL and 188.0 ng/mL and 10.6 ng/mL
  concentration in liver: 60.5 ng/mL and 1520.0 ng/mL and 216.5 ng/mL and 680.0 ng/mL
  concentration in plasma: 46.8 ng/mL and 175.0 ng/mL and 3.4 ng/mL and 14.0 ng/mL
[1]; [8]
  concentration in brain: 34.8 ng/mL and 20.9 ng/mL and 5.3 ng/mL and 18.2 ng/mL
  concentration in liver: 431.5 ng/mL and 50.5 ng/mL and 37.6 ng/mL and 147.5 ng/mL
  concentration in plasma: 6.0 ng/mL and 2.7 ng/mL and 1.8 ng/mL and 10.9 ng/mL
[1]; 25 mg/kg p.o., 1440.0 minutes, individual animal
  concentration in plasma: 0.0 ng/mL
[1]; [9]
  concentration in brain: 36.3 ng/mL and 8.5 ng/mL and 10.5 ng/mL and 55.5 ng/mL
  concentration in liver: 4.0 ng/mL and 2.6 ng/mL and 0.8 ng/mL and 8.7 ng/mL
[1]; 25 mg/kg p.o., 2880.0 minutes, individual animal
  concentration in plasma: 0.0 ng/mL
[1]; [10]
  concentration in brain: 0.0 ng/mL and 3.0 ng/mL and 2.5 ng/mL and 0.7 ng/mL
  concentration in liver: 0.0 ng/mL (3×) and 1.0 ng/mL
[1]; male, C57BL6/J, mouse, brain, po, 25 mg/kg, 25 mg/kg p.o., 0.0 minutes, average, read-out: concentration in brain
  concentration at 0 min: 12.6 ng/mL
[1]; male, C57BL6/J, mouse, brain, po, 25 mg/kg, 25 mg/kg p.o., 15.0 minutes, average, read-out: concentration in brain
  concentration at 15 min: 34.7 ng/mL
[1]; male, C57BL6/J, mouse, brain, po, 25 mg/kg, 25 mg/kg p.o., 15.0 minutes, individual animal
  concentration at 15 minutes: 40.2 ng/mL
[1]; male, C57BL6/J, mouse, brain, po, 25 mg/kg, 25 mg/kg p.o., 60.0 minutes, average, read-out: concentration in brain
  concentration at 60 min: 542 ng/mL
[1]; male, C57BL6/J, mouse, brain, po, 25 mg/kg, 25 mg/kg p.o., 120.0 minutes, average, read-out: concentration in brain
  concentration at 120 min: 236 ng/mL
[1]; male, C57BL6/J, mouse, brain, po, 25 mg/kg, 25 mg/kg p.o., 120.0 minutes, individual animal
  concentration at 120 minutes: 270 ng/mL
[1]; male, C57BL6/J, mouse, brain, po, 25 mg/kg, 25 mg/kg p.o., 240.0 minutes, average, read-out: concentration in brain
  concentration at 240 min: 185 ng/mL
[1]; male, C57BL6/J, mouse, brain, po, 25 mg/kg, 25 mg/kg p.o., 480.0 minutes, average, read-out: concentration in brain
  concentration at 480 min: 19.8 ng/mL
[1]; male, C57BL6/J, mouse, brain, po, 25 mg/kg, 25 mg/kg p.o., 1440.0 minutes, average, read-out: concentration in brain
  concentration at 1440 min: 27.7 ng/mL
[1]; male, C57BL6/J, mouse, brain, po, 25 mg/kg, 25 mg/kg p.o., 2880.0 minutes, average, read-out: concentration in brain
  concentration at 2880 min: 1.5 ng/mL
[1]; male, C57BL6/J, mouse, liver, po, 25 mg/kg, 25 mg/kg p.o., 0.0 minutes, average, read-out: concentration in liver
  concentration at 0 min: 1.2 ng/mL
[1]; male, C57BL6/J, mouse, liver, po, 25 mg/kg, 25 mg/kg p.o., 15.0 minutes, average, read-out: concentration in liver
  concentration at 15 min: 443 ng/mL
[1]; male, C57BL6/J, mouse, liver, po, 25 mg/kg, 25 mg/kg p.o., 60.0 minutes, average, read-out: concentration in liver
  concentration at 60 min: 1980 ng/mL
[1]; male, C57BL6/J, mouse, liver, po, 25 mg/kg, 25 mg/kg p.o., 120.0 minutes, average, read-out: concentration in liver
  concentration at 120 min: 1300 ng/mL
[1]; male, C57BL6/J, mouse, liver, po, 25 mg/kg, 25 mg/kg p.o., 240.0 minutes, average, read-out: concentration in liver
  concentration at 240 min: 619 ng/mL
[1]; male, C57BL6/J, mouse, liver, po, 25 mg/kg, 25 mg/kg p.o., 480.0 minutes, average, read-out: concentration in liver
  concentration at 480 min: 167 ng/mL
[1]; male, C57BL6/J, mouse, liver, po, 25 mg/kg, 25 mg/kg p.o., 1440.0 minutes, average, read-out: concentration in liver
  concentration at 1440 min: 4 ng/mL
[1]; male, C57BL6/J, mouse, liver, po, 25 mg/kg, 25 mg/kg p.o., 2880.0 minutes, average, read-out: concentration in liver
  concentration at 2880 min: 0.3 ng/mL
[1]; male, C57BL6/J, mouse, plasma, 25 mg/kg single oral dose
  Cmax: 93.4 ng/mL and 370 nM
[1]; male, C57BL6/J, mouse, plasma, po, 25 mg/kg, 25 mg/kg p.o., 0.0 minutes, average, read-out: concentration in plasma
  concentration at 0 min: 0.2 ng/mL
[1]; male, C57BL6/J, mouse, plasma, po, 25 mg/kg, 25 mg/kg p.o., 15.0 minutes, average, read-out: concentration in plasma
  concentration at 15 min: 16.2 ng/mL
[1]; male, C57BL6/J, mouse, plasma, po, 25 mg/kg, 25 mg/kg p.o., 15.0 minutes, individual animal, read-out: concentration in plasma
  concentration at 15 min: 18.8 ng/mL
[1]; male, C57BL6/J, mouse, plasma, po, 25 mg/kg, 25 mg/kg p.o., 60.0 minutes, average, read-out: concentration in plasma
  concentration at 60 min: 74.4 ng/mL
[1]; male, C57BL6/J, mouse, plasma, po, 25 mg/kg, 25 mg/kg p.o., 120.0 minutes, average, read-out: concentration in plasma
  concentration at 120 min: 93.4 ng/mL
[1]; male, C57BL6/J, mouse, plasma, po, 25 mg/kg, 25 mg/kg p.o., 240.0 minutes, average, read-out: concentration in plasma
  concentration at 240 min: 59.8 ng/mL
[1]; male, C57BL6/J, mouse, plasma, po, 25 mg/kg, 25 mg/kg p.o., 480.0 minutes, average, read-out: concentration in plasma
  concentration at 480 min: 5.3 ng/mL
[1]; male, C57BL6/J, mouse, plasma, po, 25 mg/kg, 25 mg/kg p.o., 1440.0 minutes, average, read-out: concentration in plasma
  concentration at 1440 min: 0 ng/mL
[1]; male, C57BL6/J, mouse, plasma, po, 25 mg/kg, 25 mg/kg p.o., 1440.0 minutes, individual animal, read-out: concentration in plasma
  concentration at 1440 min: 0 ng/mL
[1]; male, C57BL6/J, mouse, plasma, po, 25 mg/kg, 25 mg/kg p.o., 2880.0 minutes, average, read-out: concentration in plasma
  concentration at 2880 min: 0 ng/mL
[1]; male, C57BL6/J, mouse, plasma, po, 25 mg/kg, 25 mg/kg p.o., 2880.0 minutes, individual animal, read-out: concentration in plasma
  concentration at 2880 min: 0 ng/mL
[2]; 50 mg/kg, 50 mg/kg single oral dose
  AUC(0-t): 0.833 µg·h/mL
[2]; 150 mg/kg, 150 mg/kg single oral dose
  AUC(0-t): 1.83 µg·h/mL
[2]; 500 mg/kg, 500 mg/kg single oral dose
  AUC(0-t): 3.33 µg·h/mL
[2]; 50 mg/kg single oral dose
  Cmax: 60 ng/mL
[2]; 150 mg/kg single oral dose
  Cmax: 120 ng/mL
[2]; 500 mg/kg single oral dose
  Cmax: 170 ng/mL
